Source: US6391921B1 (priority 2000, dated 2002)

Columns and labels:
skh-1 mice [1] = assay: UVB-irradiated skin edema (skinfold thickness); format: in vivo; details: 180 mJ/cm^2 UVB
Procedure: Mice (skh-1) were treated daily with 20 mg/kg i.p. bolus injections of compound D-58 from day −2 (i. e. 2 days prior to UVB exposure) until the termination of the experiment. Anesthetized mice received UVB radiations to a 2.0 cm^2 area on their dorsal surface. This area was painted either with the test compound (1.5 mg/cm^2) in drug receiving mice, or with vehicle in control mice 15 minutes before irradiation. The distance between UVB lamps and surface receiving irradiation was 20 cm. The final radiation dose received by skh-1 hairless mice was 180 mJ/cm^2 which is approximately four times higher than the minimal erythema dose (MED) (ref 29) in these mice. Skinfold thickness of the back of the mice was recorded prior to, and on each day after UVB exposure for five days with a digital thickness gauge (Mitutoyo Co., Plainfield, N.J.) which measures the skinfold thickness in a 0-10 mm range with an accuracy of 0.015 mm. […] For this purpose female, hairless, albino skh-1 mice were exposed to 180 mJ/cm^2 UVB light and their skinfold thickness, as a parameter of acute inflammation, was measured on days 1 through 5 following irradiation. […] The data points represent the mean±SEM values (n=5 mice). *p<0.05 and **p<0.001 compared to vehicle-treated UVB irradiated controls were determined by Student's t test.

skh-1 mice [2] = assay: Histological studies of UVB-irradiated skin; format: in vivo
From the text: After mice from Example 7 were sacrificed electively, a skin specimen was removed and spread on a sheet of dental wax. An 8 mm^2 biopsy punch was taken and fixed in buffered formalin. 4-5 μm thick sections were cut from paraffin blocks. In order to study the histopathological changes in skin following UVB exposure, the tissue sections were stained with hematoxylin and eosin and the stained slides were examined microscopically.
The effects of compound D-58 on UVB-induced histological changes in skin were examined and the results are illustrated in the 40× magnifications of FIGS. 8A-8C. The normal epidermis typically has a 2-3 cell layer and contains scattered inflammatory cells especially around hair follicles (FIG. 8A). […] Large numbers of neutrophils also were accumulated in the dermis (FIG. 8B). In contrast, the skin of mice treated with compound D-58 looked very much like the skin of unirradiated controls (FIG. 8C), with 1-2 cell layers of epidermis and normal dermis.

RBL-2H3 mast cells = assay: IgE receptor/FcεRI-mediated mast cell degranulation (β-hexosaminidase release); format: cell-based, rat
Procedure: Monolayers of RBL-2H3 rat mast cells were sensitized with monoclonal anti-DNP IgE antibody (0.24 mg/ml) for 1 hour at 37° C. in a 48-well tissue culture plate. Unbound IgE was removed by washing the cells with phosphate buffered saline. After washing, PIPES-buffered saline containing 1 mM calcium chloride was added to the monolayers of the RBL-2H3 cells. The cells were challenged with 20 ng/ml DNP-BSA for 30 minutes at 37° C. The plate was centrifuged at 200 g for 10 minutes at 4° C. and supernatants were saved. […]
To study the effects of compound D-58, RBL-2H3 cells were incubated with compound D-58 at the indicated concentrations or vehicle for 1 hour prior to antigen challenge. Mast cell degranulation (β-hexosaminidase release, % of total) was assessed by measuring the β-hexosaminidase levels in cell free supernatants and Triton X-100 solubilized pellets using the formula: β-hexosaminidase release, % of total=100×(β-hexosaminidase level in supernatant/β-hexosaminidase level in supernatant+solubilized pellet). […]
In order to examine the effects of compound D-58 on IgE receptor/FcεRI-mediated mast cell activation and mediator release, RBL-2H3 mast cells were exposed to increasing concentrations of this ethanone or vehicle prior to challenge with antigen (DNP-BSA). […] Mast cell β-hexosaminidase release (FIG. 3A) and LTC4 release (FIG. 3B) were measured. […]

SMILES: COc1ccc(CC(=O)c2c(O)cc(O)cc2O)cc1 [Compound D-58]
- development of skin edema after UVB exposure (skh-1 mice [1]; 20 mg/kg i.p. daily from day −2 plus 1.5 mg/cm^2 topical, FIG. 7): effectively inhibited
- skinfold thickness (skh-1 mice [1]; by 72 hours post irradiation): at baseline control levels
- cell layers of epidermis (skh-1 mice [2]; UVB-irradiated skin of treated mice, FIG. 8C, UVB-irradiated untreated 3-5, normal 2-3): 1-2
- edema and neutrophil influx in UVB irradiated skin (skh-1 mice [2]; histology, hematoxylin and eosin): prevented the development of edema and neutrophil influx
- IgE/antigen induced mast cell degranulation (β-hexosaminidase) (RBL-2H3 mast cells; 1 hour prior to DNP-BSA challenge, FIG. 3A): inhibited
- mediator release induced by compound alone (RBL-2H3 mast cells; incubation without antigen challenge (data not shown)): did not induce mediator release
